# Test results: US20150010928A1, “MEANS AND METHODS FOR ASSESSING AN ENDOCRINE DISEASE OR DISORDER” (priority 2012, published 2015)
# Marks after values point to notes of the source that are not given here.
# Test system: female rats
# Assay: Plasma metabolite profiling (GC-MS, LC-MS, SPE-LC-MS) in female rats dosed once daily over 28 days (OECD 407)
# Assay type: in vivo, rat
# Conditions: high dose
# Outline: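 Polar and lipid fractions profiled by GC-MS and LC-MS/MRM, steroids by online SPE-LC-MS; pool-normalized data compared to controls by Welch test as treatment ratios and p-values.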
compound,measurement,setting,value
C[C@@H]1CC2=CC(=O)CC[C@@H]2[C@H]2CC[C@@]3(C)[C@@H](CC[C@]3(C)O)[C@@H]21 [Mibolerone],3-Hydroxybutyrate,"f7, female rats, Table 15a",1.36 *
same,"DAG (C18:1,C18:2)","f7, female rats, Table 15a",0.43
same,Glutamate,"f7, female rats, Table 15a",1.66 *
same,Glycine,"f7, female rats, Table 15a",1.19 *
same,"Phosphatidylcholine (C16:0,C20:5)","f7, female rats, Table 15a",0.56
same,"TAG (C16:0,C16:1)","f7, female rats, Table 15a",2.26
same,"TAG (C16:0,C18:1,C18:3)","f7, female rats, Table 15a",1.22
same,"TAG (C16:0,C18:2)","f7, female rats, Table 15a",0.87
same,"TAG (C18:1,C18:2)","f7, female rats, Table 15a",0.77
same,"TAG (C18:2,C18:2)","f7, female rats, Table 15a",0.9
same,"TAG (C18:3, C18:2, C18:1)","f7, female rats, Table 15a",0.99
same,TAG (DAG-Fragment),"f7, female rats, Table 15a",0.95
same,TAG No 059,"f7, female rats, Table 15a",1.08 *
same,Threonic acid,"f7, female rats, Table 15a",1.15 *
same,trans-4-Hydroxyproline,"f7, female rats, Table 15a",1.8 *
same,Androstenedione,"f7, female rats, Table 15b",0.14 *
same,Arginine,"f7, female rats, Table 15b",0.85 *
same,Campesterol,"f7, female rats, Table 15b",0.16
same,"Ceramide (d18:1,C24:0)","f7, female rats, Table 15b",0.12 *
same,Lactate,"f7, female rats, Table 15b",0.62 *
same,Lysine,"f7, female rats, Table 15b",0.68 *
same,Metanephrine,"f7, female rats, Table 15b",0.62 *
same,Normetanephrine,"f7, female rats, Table 15b",1.15
same,"Phosphatidylcholine (C16:0,C20:5)","f7, female rats, Table 15b",0.56 *
same,"Phosphatidylcholine (C16:0,C22:6)","f7, female rats, Table 15b",0.18 *
same,"Phosphatidylcholine (C18:0, C20:3)","f7, female rats, Table 15b",0.2 *
same,"Phosphatidylcholine (C18:0,C18:1)","f7, female rats, Table 15b",0.21 *
same,Progesterone,"f7, female rats, Table 15b",0.62
same,Pyruvate,"f7, female rats, Table 15b",0.75 *
same,"Sphingomyelin (d18:1,C23:0)","f7, female rats, Table 15b",0.06 *
same,"Sphingomyelin (d18:1,C24:0)","f7, female rats, Table 15b",0.11 *
same,Urea,"f7, female rats, Table 15b",0.65 *
same,3-Hydroxybutyrate,"f14, female rats, Table 15a",1.73 *
same,"DAG (C18:1,C18:2)","f14, female rats, Table 15a",2.88 *
same,Glutamate,"f14, female rats, Table 15a",1.67 *
same,Glycine,"f14, female rats, Table 15a",1.22 *
same,"Phosphatidylcholine (C16:0,C20:5)","f14, female rats, Table 15a",1.54 *
same,"TAG (C16:0,C16:1)","f14, female rats, Table 15a",12.22 *
same,"TAG (C16:0,C18:1,C18:3)","f14, female rats, Table 15a",8.88 *
same,"TAG (C16:0,C18:2)","f14, female rats, Table 15a",6.82 *
same,"TAG (C18:1,C18:2)","f14, female rats, Table 15a",8.37 *
same,"TAG (C18:2,C18:2)","f14, female rats, Table 15a",6.69 *
same,"TAG (C18:3, C18:2, C18:1)","f14, female rats, Table 15a",5.98 *
same,TAG (DAG-Fragment),"f14, female rats, Table 15a",7.86 *
same,TAG No 059,"f14, female rats, Table 15a",4.67 *
same,Threonic acid,"f14, female rats, Table 15a",1.18 *
same,trans-4-Hydroxyproline,"f14, female rats, Table 15a",2.44 *
same,Androstenedione,"f14, female rats, Table 15b",0.11 *
same,Arginine,"f14, female rats, Table 15b",0.98 *
same,Campesterol,"f14, female rats, Table 15b",0.89
same,"Ceramide (d18:1,C24:0)","f14, female rats, Table 15b",2.02 *
same,Lactate,"f14, female rats, Table 15b",0.74 *
same,Lysine,"f14, female rats, Table 15b",0.63 *
same,Metanephrine,"f14, female rats, Table 15b",0.72 *
same,Normetanephrine,"f14, female rats, Table 15b",0.66 *
same,"Phosphatidylcholine (C16:0,C20:5)","f14, female rats, Table 15b",1.54
same,"Phosphatidylcholine (C16:0,C22:6)","f14, female rats, Table 15b",0.84 *
same,"Phosphatidylcholine (C18:0, C20:3)","f14, female rats, Table 15b",0.98
same,"Phosphatidylcholine (C18:0,C18:1)","f14, female rats, Table 15b",0.93
same,Progesterone,"f14, female rats, Table 15b",0.13 *
same,Pyruvate,"f14, female rats, Table 15b",0.83 *
same,"Sphingomyelin (d18:1,C23:0)","f14, female rats, Table 15b",1.26
same,"Sphingomyelin (d18:1,C24:0)","f14, female rats, Table 15b",1.33 *
same,Urea,"f14, female rats, Table 15b",0.48 *
same,3-Hydroxybutyrate,"f28, female rats, Table 15a",1.06
same,"DAG (C18:1,C18:2)","f28, female rats, Table 15a",2.27 *
same,Glutamate,"f28, female rats, Table 15a",1.73 *
same,Glycine,"f28, female rats, Table 15a",1.18 *
same,"Phosphatidylcholine (C16:0,C20:5)","f28, female rats, Table 15a",1.32 *
same,"TAG (C16:0,C16:1)","f28, female rats, Table 15a",5.83 *
same,"TAG (C16:0,C18:1,C18:3)","f28, female rats, Table 15a",6.23 *
same,"TAG (C16:0,C18:2)","f28, female rats, Table 15a",4.89 *
same,"TAG (C18:1,C18:2)","f28, female rats, Table 15a",4.95 *
same,"TAG (C18:2,C18:2)","f28, female rats, Table 15a",4.92 *
same,"TAG (C18:3, C18:2, C18:1)","f28, female rats, Table 15a",4.74 *
same,TAG (DAG-Fragment),"f28, female rats, Table 15a",5.74 *
same,TAG No 059,"f28, female rats, Table 15a",3.5 *
same,Threonic acid,"f28, female rats, Table 15a",1.94 *
same,trans-4-Hydroxyproline,"f28, female rats, Table 15a",2 *
same,Androstenedione,"f28, female rats, Table 15b",0.07 *
same,Arginine,"f28, female rats, Table 15b",0.83 *
same,Campesterol,"f28, female rats, Table 15b",0.54 *
same,"Ceramide (d18:1,C24:0)","f28, female rats, Table 15b",1.53 *
same,Lactate,"f28, female rats, Table 15b",0.73 *
same,Lysine,"f28, female rats, Table 15b",0.57 *
same,Metanephrine,"f28, female rats, Table 15b",0.66 *
same,Normetanephrine,"f28, female rats, Table 15b",0.78 *
same,"Phosphatidylcholine (C16:0,C20:5)","f28, female rats, Table 15b",1.32
same,"Phosphatidylcholine (C16:0,C22:6)","f28, female rats, Table 15b",0.74 *
same,"Phosphatidylcholine (C18:0, C20:3)","f28, female rats, Table 15b",0.91 *
same,"Phosphatidylcholine (C18:0,C18:1)","f28, female rats, Table 15b",0.86
same,Progesterone,"f28, female rats, Table 15b",0.06 *
same,Pyruvate,"f28, female rats, Table 15b",0.65 *
same,"Sphingomyelin (d18:1,C23:0)","f28, female rats, Table 15b",0.63 *
same,"Sphingomyelin (d18:1,C24:0)","f28, female rats, Table 15b",1.05
same,Urea,"f28, female rats, Table 15b",0.88 *
